Patent US10844077B2, “Thiazolyl-containing compounds for treating proliferative diseases” (Dana-Farber Cancer Institute, Inc., priority 2014, dated 2020)
“And” between values parts separate entries of the source, which are not always exact repeats. Equal entries are not always repeated.

Columns and labels:
Experiment in all cases: KINATIV assay
Assay type in all cases: cell-based
[1] = test system: AurA, AurB, AurC; settings: 1 μM, 90 minutes, BCWM.1 cells
Protocol: (§1) The cells were harvested and lysed. The lysates were directly labeled with an ATP-biotin probe. Bound kinases were identified and quantitated by ACTIVX as described in Patricelli et al., Biochemistry, 2007, 46(2): 350-358. The compounds were tested in duplicates against duplicate or quadruplicate control samples.

[2] = target: AurB (Homo sapiens (Human), UniProt Q96GD4); settings: 1 μM, 90 minutes, BCWM.1 cells
Protocol: as §1

[3] = target: BLK (Homo sapiens (Human), UniProt P51451); settings: 1 μM, 90 minutes, BCWM.1 cells
Protocol: as §1

[4] = target: CASK (Homo sapiens (Human), UniProt O14936); settings: 1 μM, 90 minutes, BCWM.1 cells
Protocol: as §1

[5] = target: CDK4 (Homo sapiens (Human), UniProt P11802); settings: 1 μM, 90 minutes, BCWM.1 cells
Protocol: as §1

[6] = target: CLK3 (Homo sapiens (Human), UniProt P49761); settings: 1 μM, 90 minutes, BCWM.1 cells
Sequence of CLK3 (P49761 whole entry): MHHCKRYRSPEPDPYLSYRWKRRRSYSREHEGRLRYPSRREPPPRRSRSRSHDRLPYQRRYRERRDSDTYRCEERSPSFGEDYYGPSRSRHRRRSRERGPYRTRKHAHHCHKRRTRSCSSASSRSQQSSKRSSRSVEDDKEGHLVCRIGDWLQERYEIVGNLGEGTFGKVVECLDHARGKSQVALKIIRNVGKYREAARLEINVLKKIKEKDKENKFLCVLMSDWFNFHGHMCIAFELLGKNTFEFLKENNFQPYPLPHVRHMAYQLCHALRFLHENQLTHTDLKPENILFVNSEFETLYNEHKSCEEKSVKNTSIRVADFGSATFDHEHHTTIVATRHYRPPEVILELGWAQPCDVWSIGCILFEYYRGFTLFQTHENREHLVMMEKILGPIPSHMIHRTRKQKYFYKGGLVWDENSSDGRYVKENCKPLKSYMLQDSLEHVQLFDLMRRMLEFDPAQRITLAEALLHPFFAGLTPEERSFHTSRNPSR
Protocol: as §1

[7] = target: CaMK1d (Homo sapiens (Human), UniProt Q8IU85); settings: 1 μM, 90 minutes, BCWM.1 cells
Sequence of CaMK1d (Q8IU85 whole entry): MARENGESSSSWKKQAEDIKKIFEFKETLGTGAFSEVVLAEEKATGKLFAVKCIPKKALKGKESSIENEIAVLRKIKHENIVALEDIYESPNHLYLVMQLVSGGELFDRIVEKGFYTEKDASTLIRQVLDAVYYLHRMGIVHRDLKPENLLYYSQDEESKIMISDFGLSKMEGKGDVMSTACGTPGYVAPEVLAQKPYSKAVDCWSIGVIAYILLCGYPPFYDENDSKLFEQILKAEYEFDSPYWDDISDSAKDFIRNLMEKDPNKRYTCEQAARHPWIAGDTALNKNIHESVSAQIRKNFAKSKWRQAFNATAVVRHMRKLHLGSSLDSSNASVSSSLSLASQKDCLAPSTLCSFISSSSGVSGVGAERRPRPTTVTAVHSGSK
Protocol: as §1

[8] = test system: CaMK2a, CaMK2b, CaMK2d, CaMK2g; settings: 1 μM, 90 minutes, BCWM.1 cells
Protocol: as §1

[9] = target: CaMK2d (Homo sapiens (Human), UniProt Q13557); settings: 1 μM, 90 minutes, BCWM.1 cells
Protocol: as §1

[10] = target: CaMK2g (Homo sapiens (Human), UniProt Q13555); settings: 1 μM, 90 minutes, BCWM.1 cells
Protocol: as §1

[11] = target: Erk2 (Homo sapiens (Human), UniProt P28482); settings: 1 μM, 90 minutes, BCWM.1 cells
Protocol: as §1

[12] = target: FES (Homo sapiens (Human), UniProt P07332); settings: 1 μM, 90 minutes, BCWM.1 cells
Protocol: as §1

[13] = target: FRK (Homo sapiens (Human), UniProt P42685); settings: 1 μM, 90 minutes, BCWM.1 cells
Protocol: as §1

[14] = target: GSK3B (Homo sapiens (Human), UniProt P49841)
Sequence of GSK3B (P49841 whole entry): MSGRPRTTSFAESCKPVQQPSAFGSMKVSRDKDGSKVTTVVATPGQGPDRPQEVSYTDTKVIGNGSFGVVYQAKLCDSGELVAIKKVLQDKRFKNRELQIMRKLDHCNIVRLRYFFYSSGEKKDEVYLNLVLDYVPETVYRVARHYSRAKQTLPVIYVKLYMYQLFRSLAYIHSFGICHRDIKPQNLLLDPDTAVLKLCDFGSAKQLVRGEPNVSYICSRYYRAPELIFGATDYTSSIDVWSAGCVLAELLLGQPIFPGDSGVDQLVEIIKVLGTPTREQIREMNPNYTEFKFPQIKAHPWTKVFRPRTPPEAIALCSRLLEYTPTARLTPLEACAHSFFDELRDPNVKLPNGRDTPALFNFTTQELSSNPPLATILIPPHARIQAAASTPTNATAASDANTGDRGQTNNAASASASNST
Protocol: as §1

[15] = target: HPK1 (Homo sapiens (Human), UniProt Q92918); settings: 1 μM, 90 minutes, BCWM.1 cells
Sequence of HPK1 (Q92918 whole entry): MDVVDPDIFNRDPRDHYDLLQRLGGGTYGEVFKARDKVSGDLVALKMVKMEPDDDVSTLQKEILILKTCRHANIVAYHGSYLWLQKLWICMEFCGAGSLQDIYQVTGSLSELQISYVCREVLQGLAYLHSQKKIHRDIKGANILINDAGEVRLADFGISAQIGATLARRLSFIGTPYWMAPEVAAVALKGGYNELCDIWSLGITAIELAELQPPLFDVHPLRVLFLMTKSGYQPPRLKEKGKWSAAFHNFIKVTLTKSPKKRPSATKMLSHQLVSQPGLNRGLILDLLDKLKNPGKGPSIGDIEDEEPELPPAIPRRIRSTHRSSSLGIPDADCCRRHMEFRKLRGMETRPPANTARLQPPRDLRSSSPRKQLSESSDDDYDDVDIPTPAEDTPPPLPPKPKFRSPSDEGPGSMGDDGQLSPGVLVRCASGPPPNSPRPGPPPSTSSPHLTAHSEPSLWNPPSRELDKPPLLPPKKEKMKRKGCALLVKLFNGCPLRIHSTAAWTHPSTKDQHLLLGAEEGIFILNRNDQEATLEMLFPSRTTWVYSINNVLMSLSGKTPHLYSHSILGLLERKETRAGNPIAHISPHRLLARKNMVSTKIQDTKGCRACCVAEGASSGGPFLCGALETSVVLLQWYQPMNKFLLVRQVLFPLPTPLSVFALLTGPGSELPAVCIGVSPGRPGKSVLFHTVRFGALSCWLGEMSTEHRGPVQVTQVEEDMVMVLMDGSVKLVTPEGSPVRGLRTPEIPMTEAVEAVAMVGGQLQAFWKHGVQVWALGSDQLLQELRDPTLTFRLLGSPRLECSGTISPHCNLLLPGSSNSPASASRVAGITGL
Protocol: as §1

[16] = test system: IKKe, TBK1; settings: 1 μM, 90 minutes, BCWM.1 cells
Protocol: as §1

[17] = target: IRE1 (Homo sapiens (Human), UniProt O75460); settings: 1 μM, 90 minutes, BCWM.1 cells
Sequence of IRE1 (O75460 19-977): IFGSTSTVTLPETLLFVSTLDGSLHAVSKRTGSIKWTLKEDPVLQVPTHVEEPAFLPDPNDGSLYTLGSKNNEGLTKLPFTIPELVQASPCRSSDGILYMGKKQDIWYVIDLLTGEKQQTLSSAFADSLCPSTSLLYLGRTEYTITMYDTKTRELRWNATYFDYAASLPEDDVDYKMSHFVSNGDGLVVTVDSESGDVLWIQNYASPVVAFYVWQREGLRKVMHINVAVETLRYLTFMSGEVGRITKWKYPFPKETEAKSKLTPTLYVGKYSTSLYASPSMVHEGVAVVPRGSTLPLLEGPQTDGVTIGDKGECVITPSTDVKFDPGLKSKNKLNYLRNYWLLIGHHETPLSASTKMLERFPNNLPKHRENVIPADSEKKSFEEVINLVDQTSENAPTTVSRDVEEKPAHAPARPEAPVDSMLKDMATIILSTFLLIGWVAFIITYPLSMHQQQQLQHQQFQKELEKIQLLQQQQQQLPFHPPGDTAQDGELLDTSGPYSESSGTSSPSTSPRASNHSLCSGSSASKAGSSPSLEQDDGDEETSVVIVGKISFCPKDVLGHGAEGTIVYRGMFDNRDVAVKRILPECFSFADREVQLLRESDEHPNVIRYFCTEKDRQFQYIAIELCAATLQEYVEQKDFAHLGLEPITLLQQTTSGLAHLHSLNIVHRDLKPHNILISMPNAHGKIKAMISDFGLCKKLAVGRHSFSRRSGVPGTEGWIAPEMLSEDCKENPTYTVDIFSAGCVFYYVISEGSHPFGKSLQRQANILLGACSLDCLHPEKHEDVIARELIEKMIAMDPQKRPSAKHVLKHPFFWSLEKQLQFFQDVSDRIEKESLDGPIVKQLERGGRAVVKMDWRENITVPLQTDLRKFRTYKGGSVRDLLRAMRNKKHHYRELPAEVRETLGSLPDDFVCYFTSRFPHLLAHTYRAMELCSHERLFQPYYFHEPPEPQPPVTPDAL
Protocol: as §1

[18] = target: LRRK2 (Homo sapiens (Human), UniProt Q5S007); settings: 1 μM, 90 minutes, BCWM.1 cells
Protocol: as §1

[19] = target: LYN (Homo sapiens (Human), UniProt P07948); settings: 1 μM, 90 minutes, BCWM.1 cells
Sequence of LYN (P07948 whole entry): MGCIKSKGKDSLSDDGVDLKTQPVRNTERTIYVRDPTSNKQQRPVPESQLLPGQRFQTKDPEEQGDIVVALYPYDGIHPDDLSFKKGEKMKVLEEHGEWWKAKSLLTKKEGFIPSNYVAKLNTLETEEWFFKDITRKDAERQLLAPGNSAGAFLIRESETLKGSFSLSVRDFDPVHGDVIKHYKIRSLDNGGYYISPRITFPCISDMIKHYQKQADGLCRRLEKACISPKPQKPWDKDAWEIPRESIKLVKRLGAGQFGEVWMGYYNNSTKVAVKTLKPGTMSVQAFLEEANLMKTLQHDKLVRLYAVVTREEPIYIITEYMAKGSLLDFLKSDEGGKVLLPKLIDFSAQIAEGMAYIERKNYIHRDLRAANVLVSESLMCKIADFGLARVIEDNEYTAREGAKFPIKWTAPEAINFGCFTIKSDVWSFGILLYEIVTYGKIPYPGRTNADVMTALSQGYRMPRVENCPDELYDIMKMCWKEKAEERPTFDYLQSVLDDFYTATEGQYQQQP
Protocol: as §1

[20] = test system: MAP3K15, MAP3K5, MAP3K6; settings: 1 μM, 90 minutes, BCWM.1 cells
Protocol: as §1

[21] = target: MELK (Homo sapiens (Human), UniProt Q14680); settings: 1 μM, 90 minutes, BCWM.1 cells
Protocol: as §1

[22] = target: MLK3 (Homo sapiens (Human), UniProt Q16584); settings: 1 μM, 90 minutes, BCWM.1 cells
Protocol: as §1

[23] = test system: MSK1, MSK2 domain1; settings: 1 μM, 90 minutes, BCWM.1 cells
Protocol: as §1

[24] = target: NEK2 (Homo sapiens (Human), UniProt P51955); settings: 1 μM, 90 minutes, BCWM.1 cells
Protocol: as §1

[25] = target: NEK7 (Homo sapiens (Human), UniProt Q8TDX7); settings: 1 μM, 90 minutes, BCWM.1 cells
Protocol: as §1

[26] = target: PAN3 (Homo sapiens (Human), UniProt Q58A45); settings: 1 μM, 90 minutes, BCWM.1 cells
Protocol: as §1

[27] = test system: PI4KA, PI4KAP2; settings: 1 μM, 90 minutes, BCWM.1 cells
Protocol: as §1

[28] = target: PIK3CG (Homo sapiens (Human), UniProt P48736); settings: 1 μM, 90 minutes, BCWM.1 cells
Protocol: as §1

[29] = target: RSK1 domain2 (Homo sapiens (Human), UniProt Q15418); settings: 1 μM, 90 minutes, BCWM.1 cells
Protocol: as §1

[30] = test system: RSK1, RSK2, RSK3 domain1; settings: 1 μM, 90 minutes, BCWM.1 cells
Protocol: as §1

[31] = target: SNRK (Homo sapiens (Human), UniProt Q9NRH2); settings: 1 μM, 90 minutes, BCWM.1 cells
Sequence of SNRK (Q9NRH2 whole entry): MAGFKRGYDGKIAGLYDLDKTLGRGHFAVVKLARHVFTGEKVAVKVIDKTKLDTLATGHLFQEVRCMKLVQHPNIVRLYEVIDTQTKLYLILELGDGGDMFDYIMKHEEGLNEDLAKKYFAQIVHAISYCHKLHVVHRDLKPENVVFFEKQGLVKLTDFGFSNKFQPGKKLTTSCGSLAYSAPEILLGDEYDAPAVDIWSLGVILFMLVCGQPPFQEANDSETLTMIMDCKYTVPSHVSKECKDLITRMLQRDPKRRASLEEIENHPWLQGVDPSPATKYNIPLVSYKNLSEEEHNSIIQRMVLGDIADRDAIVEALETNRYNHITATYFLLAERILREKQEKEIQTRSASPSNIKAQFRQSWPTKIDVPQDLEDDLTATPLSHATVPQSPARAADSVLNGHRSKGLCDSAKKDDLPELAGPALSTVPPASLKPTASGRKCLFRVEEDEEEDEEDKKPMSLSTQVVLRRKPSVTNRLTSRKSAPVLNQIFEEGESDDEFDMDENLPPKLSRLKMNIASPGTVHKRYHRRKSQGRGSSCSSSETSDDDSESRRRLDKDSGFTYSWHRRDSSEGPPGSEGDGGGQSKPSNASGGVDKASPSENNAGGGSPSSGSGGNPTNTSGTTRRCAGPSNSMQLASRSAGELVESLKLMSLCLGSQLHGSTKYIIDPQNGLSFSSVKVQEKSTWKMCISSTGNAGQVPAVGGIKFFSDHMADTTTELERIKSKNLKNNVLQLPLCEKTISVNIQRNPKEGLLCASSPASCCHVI
Protocol: as §1

[32] = target: SRC (Homo sapiens (Human), UniProt P12931); settings: 1 μM, 90 minutes, BCWM.1 cells
Protocol: as §1

[33] = test system: SRPK1, SRPK2; settings: 1 μM, 90 minutes, BCWM.1 cells
Protocol: as §1

[34] = target: TAO2 (Homo sapiens (Human), UniProt Q9UL54); settings: 1 μM, 90 minutes, BCWM.1 cells
Protocol: as §1

[35] = target: TYK2 domain2 (Homo sapiens (Human), UniProt P29597); settings: 1 μM, 90 minutes, BCWM.1 cells
Protocol: as §1

[36] = test system: Wnk1, Wnk2; settings: 1 μM, 90 minutes, BCWM.1 cells
Protocol: as §1

[37] = target: eEF2K (Homo sapiens (Human), UniProt O00418); settings: 1 μM, 90 minutes, BCWM.1 cells
Protocol: as §1

[38] = test system: p38d, p38g; settings: 1 μM, 90 minutes, BCWM.1 cells
Protocol: as §1

[39] = target: p70S6Kb (Homo sapiens (Human), UniProt Q9UBS0); settings: 1 μM, 90 minutes, BCWM.1 cells
Sequence of p70S6Kb (Q9UBS0 whole entry): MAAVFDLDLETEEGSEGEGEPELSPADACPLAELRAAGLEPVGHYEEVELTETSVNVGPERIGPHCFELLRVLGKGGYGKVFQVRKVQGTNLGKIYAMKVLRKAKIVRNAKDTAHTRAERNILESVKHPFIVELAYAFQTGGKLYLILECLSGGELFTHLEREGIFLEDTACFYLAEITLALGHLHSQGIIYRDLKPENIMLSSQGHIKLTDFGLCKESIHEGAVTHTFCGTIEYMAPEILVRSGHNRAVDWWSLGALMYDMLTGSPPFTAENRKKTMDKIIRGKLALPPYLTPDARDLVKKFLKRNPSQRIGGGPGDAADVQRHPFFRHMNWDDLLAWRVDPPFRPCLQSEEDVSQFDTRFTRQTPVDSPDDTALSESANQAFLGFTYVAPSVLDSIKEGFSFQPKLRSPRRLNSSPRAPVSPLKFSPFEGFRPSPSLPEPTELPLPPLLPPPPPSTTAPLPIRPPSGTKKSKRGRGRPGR
Protocol: as §1

C=CC(=O)N1CCC(CNc2nccc(Nc3ncc(C(=O)Nc4c(C)cccc4C)s3)n2)C1 (racemic) [Example I-8]
% change of MS signal compared to control sample [1]: −2.9% | % change of MS signal compared to control sample [2]: −14.3% | % change of MS signal compared to control sample [3]: >95% | % change of MS signal compared to control sample [4]: 43.0% | % change of MS signal compared to control sample [5]: 6.1% | % change of MS signal compared to control sample [6]: −14.9% | % change of MS signal compared to control sample [7]: −14.1% and −8.7% | % change of MS signal compared to control sample [8]: 10.4% | % change of MS signal compared to control sample [9]: −22.3% | % change of MS signal compared to control sample [10]: −9.4% | % change of MS signal compared to control sample [11]: −0.1% | % change of MS signal compared to control sample [12]: −13.3% | % change of MS signal compared to control sample [13]: 95.3% | % change of MS signal compared to control sample [14]: −10.7% | % change of MS signal compared to control sample [15]: 32.8% and 24.6% | % change of MS signal compared to control sample [16]: 5.5% | % change of MS signal compared to control sample [17]: −1.5% | % change of MS signal compared to control sample [18]: −12.2% | % change of MS signal compared to control sample [19]: >97% and >90% | % change of MS signal compared to control sample [20]: 2.2% | % change of MS signal compared to control sample [21]: −10.0% | % change of MS signal compared to control sample [22]: 11.7% | % change of MS signal compared to control sample [23]: −29.7% | % change of MS signal compared to control sample [24]: −3.0% | % change of MS signal compared to control sample [25]: −1.0% | % change of MS signal compared to control sample [26]: 18.3% | % change of MS signal compared to control sample [27]: −9.9% | % change of MS signal compared to control sample [28]: −55.4% | % change of MS signal compared to control sample [29]: 0.5% | % change of MS signal compared to control sample [30]: −55.6% | % change of MS signal compared to control sample [31]: 45.1% and 59.1% | % change of MS signal compared to control sample [32]: >90% | % change of MS signal compared to control sample [33]: 33.2% | % change of MS signal compared to control sample [34]: −4.9% | % change of MS signal compared to control sample [35]: −44.6% | % change of MS signal compared to control sample [36]: −16.4% | % change of MS signal compared to control sample [37]: −1.5% | % change of MS signal compared to control sample [38]: 3.3% | % change of MS signal compared to control sample [39]: −22.7%
